Experimental findings from patent US12091411B2, “IRAK degraders and uses thereof” (Kymera Therapeutics, Inc., priority 2022, dated 2024) are described below.

The structures appear in SMILES notation. Like-named read-outs stand apart in the source and are kept apart here. Some results are limits rather than exact numbers.

For the assay, the target named is T1, IRAK4 (Homo sapiens, UniProt Q9NWZ3).
T1 construct: Degradation of IRAK4 in OCI-LY10 was quantitatively measured using Meso Scale Discovery technology; endogenous in cells; host or cells: OCI-LY10
T1 sequence (Q9NWZ3 1-460): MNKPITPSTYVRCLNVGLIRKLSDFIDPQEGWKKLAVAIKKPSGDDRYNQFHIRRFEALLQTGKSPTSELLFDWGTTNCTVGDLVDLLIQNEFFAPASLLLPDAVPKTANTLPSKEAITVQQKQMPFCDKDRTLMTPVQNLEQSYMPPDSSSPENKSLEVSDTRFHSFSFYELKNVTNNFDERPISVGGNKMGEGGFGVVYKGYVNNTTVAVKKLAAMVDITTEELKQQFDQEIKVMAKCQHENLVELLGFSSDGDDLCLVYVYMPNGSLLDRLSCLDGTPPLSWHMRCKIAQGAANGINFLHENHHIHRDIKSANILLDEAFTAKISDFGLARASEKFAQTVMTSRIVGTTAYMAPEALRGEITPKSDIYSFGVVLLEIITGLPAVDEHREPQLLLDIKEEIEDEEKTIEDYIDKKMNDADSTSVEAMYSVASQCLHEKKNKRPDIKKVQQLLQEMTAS
Kind of assay: IRAK4 MSD Degradation in OCI-LY10. Type of assay: cell-based. The conditions noted are these: OCI-LY10 cells, MSD. On the procedure:
Degradation of IRAK4 in OCI-LY10 was quantitatively measured using Meso Scale Discovery technology. […] Compounds were then added to the assay plates with a final top concentration of 1 to 10 μM in a 1:3 dilution series with total of 8 doses. The assay plates were then incubated for 4 to 24 hours at 37° C. under 5% CO2. […] To prepare MSD assay plates (Meso Scale Discovery Catalog number L15XA-3), the plates were coated with 2 μg/mL capture antibody (mouse Anti-IRAK4 antibody [2H9], ab119942) in PBS, at 40 μL/well. […] Cell lysates were then added to MSD assay plates and the plates were incubated at room temperature for 1 hour. The plates were then washed 3 times with 150 μL/well TBST buffer and 25 μL/well primary detection antibody (rabbit Anti-IRAK4 antibody [Y279], from Abcam. Catalog number ab32511, 1 μg/mL). The assay plates were then incubated at room temperature for 1 hour, washed 3 times with 150 μL/well TBST buffer and 25 μL/well secondary detection antibody, SULFO-TAG anti-rabbit antibody were added (anti-rabbit antibody from Meso Scale Discovery, Catalog number R32AB-1, 1 μg/mL). The assay plates were then incubated at room temperature for 1 hour, washed 3 times with 150 μL/well TBST buffer, and 150 μL/well MSD reading buffer (Meso Scale Discovery catalog number R92TC-2) was added. The plates were then analyzed by a MSD reader (Meso Scale Discovery, Model Quick Plex SQ 120). The data was then analyzed by software Prism 7.0 from GraphPad and the dose-depended IRAK4 degradation were fit using a three-parameter logistic equation to calculate DC50.
The letter codes for IRAK4 DC50 include: A (<0.01 μM); B (0.01 to <0.1 μM); C (0.1 to 0.2 μM); and D (>0.2 μM or not tested).

Setting [1] is: 4 hrs incubation, read-out: IRAK4 degradation in OCI-LY10 at 4 hrs: DC50.
Setting [2] is: 24 hrs incubation, read-out: IRAK4 degradation in OCI-LY10 at 24 hrs: DC50.

As a reminder, the DC50 is the concentration at which degradation of the target reaches its halfway point.

Regarding `Cn1c(=O)n(C2CCC(=O)NC2=O)c2cccc(C#CCN3CCN(C[C@H]4CC[C@H](n5cc(NC(=O)c6cnn7ccc(N8C[C@H]9C[C@@H]8CO9)nc67)c(C(F)(F)F)n5)CC4)CC3)c21` (relative stereo) [I-112], the half-maximal degradation concentration (DC50) was 10 to 100 nM under setting [1] and over 200 nM under setting [2].
The matching figures for `Cn1c(=O)n(C2CCC(=O)NC2=O)c2cccc(CCCN3CCN(C[C@H]4CC[C@H](n5cc(NC(=O)c6cnn7ccc(N8C[C@H]9C[C@@H]8CO9)nc67)c(C(F)F)n5)CC4)CC3)c21` (relative stereo) [I-114]: under 10 nM and over 200 nM.
Take `Cc1nn([C@H]2CC[C@H](CN3CCN(CC#Cc4cccc5c4n(C)c(=O)n5C4CCC(=O)NC4=O)CC3)CC2)cc1NC(=O)c1cnn2ccc(N3C[C@H]4C[C@@H]3CO4)nc12` (relative stereo) [I-115]: the DC50 reads like this: under setting [1], 10 to 100 nM; under setting [2], over 200 nM.
Turning to `Cn1c(=O)n(C2CCC(=O)NC2=O)c2cccc(C#CCN3CCN(C[C@H]4CC[C@H](n5cc(NC(=O)c6cnn7ccc(N8C[C@H]9C[C@@H]8CO9)nc67)c(Cl)n5)CC4)CC3)c21` (relative stereo) [I-117], the DC50 by setting is: under setting [1], over 200 nM; under setting [2], 10 to 100 nM.
As to `C[C@H]1CN(C[C@H]2CC[C@H](n3cc(NC(=O)c4cnn5ccc(N6C[C@H]7C[C@@H]6CO7)nc45)c(C(F)F)n3)CC2)CC[C@@H]1OCC#Cc1cccc2c1n(C)c(=O)n2[C@H]1CCC(=O)NC1=O` (single isomer, unassigned) [I-67], the DC50 under setting [1] was under 10 nM and the DC50 under setting [2] was over 200 nM.
The matching figures for `Cn1c(=O)n([C@@H]2CCC(=O)NC2=O)c2cccc(C#CCN3CCN(C[C@H]4CC[C@H](n5cc(NC(=O)c6cnn7ccc(N8C[C@H]9C[C@@H]8CO9)nc67)c(C(F)F)n5)CC4)CC3)c21` (single isomer, unassigned) [I-71]: 10 to 100 nM and over 200 nM.
For the molecule `Cn1c(=O)n([C@H]2CCC(=O)NC2=O)c2cccc(C#CCN3CCN(C[C@H]4CC[C@H](n5cc(NC(=O)c6cnn7ccc(N8C[C@H]9C[C@@H]8CO9)nc67)c(C(F)F)n5)CC4)CC3)c21` (single isomer, unassigned) [I-72], the DC50 runs as follows: under setting [1], under 10 nM; under setting [2], over 200 nM.
Regarding `C[C@H]1CN(C[C@H]2CC[C@H](n3cc(NC(=O)c4cnn5ccc(N6C[C@H]7C[C@@H]6CO7)nc45)c(C(F)F)n3)CC2)CC[C@@H]1OCC#Cc1cccc2c1n(C)c(=O)n2[C@@H]1CCC(=O)NC1=O` (single isomer, unassigned) [I-73], the DC50 under setting [1] fell in the range of 10 to 100 nM and the DC50 under setting [2] is over 200 nM.
The matching figures for `Cn1c(=O)n(C2CCC(=O)NC2=O)c2cccc(N3CCN(C4CCN([C@H]5CC[C@H](n6cc(NC(=O)c7cnn8ccc(N9C[C@H]%10C[C@@H]9CO%10)nc78)c(C(F)F)n6)CC5)CC4)CC3)c21` (single isomer, unassigned) [I-201]: under 10 nM and over 200 nM.
With `Cn1c(=O)n(C2CCC(=O)NC2=O)c2cccc(N3CCN(C4CCN([C@H]5CC[C@@H](n6cc(NC(=O)c7cnn8ccc(N9C[C@H]%10C[C@@H]9CO%10)nc78)c(C(F)F)n6)CC5)CC4)CC3)c21` (single isomer, unassigned) [I-425], the DC50 runs as follows: under setting [1], under 10 nM; under setting [2], over 200 nM.
Consider `Cn1c(=O)n(C2CCC(=O)NC2=O)c2cccc([C@@H]3CCN(C[C@H]4CC[C@H](n5cc6cc(NC(=O)c7cccc(C(F)(F)F)n7)ncc6n5)CC4)C[C@H]3F)c21` (single isomer, unassigned) [I-656], for which the DC50 is over 200 nM under setting [1] and under 10 nM under setting [2].
For `Cn1c(=O)n(C2CCC(=O)NC2=O)c2cccc(C3CN(C4CCN([C@H]5CC[C@H](n6cc(NC(=O)c7cnn8ccc(N9C[C@H]%10C[C@@H]9CO%10)nc78)c(C(F)F)n6)CC5)CC4(F)F)C3)c21` (single isomer, unassigned) [I-736], the DC50 is over 200 nM under setting [1] and under 10 nM under setting [2].
Turning to `Cn1c(=O)n(C2CCC(=O)NC2=O)c2ccc(N3CC(CO[C@H]4CCN(C[C@H]5CC[C@H](n6cc(NC(=O)c7cnn8ccc(N9C[C@H]%10C[C@@H]9CO%10)nc78)c(C(F)F)n6)CC5)C[C@H]4F)C3)c(F)c21` (single isomer, unassigned) [I-738], the 50% degradation concentration (DC50) is, setting by setting: under setting [1], over 200 nM; under setting [2], under 10 nM.
As to `Cn1c(=O)n(C2CCC(=O)NC2=O)c2cccc([C@H]3CCN(C[C@H]4CC[C@H](n5cc6cc(NC(=O)c7cccc(C(F)(F)F)n7)ncc6n5)CC4)C[C@H]3F)c21` (single isomer, unassigned) [I-781], the 50% degradation concentration (DC50) is over 200 nM under setting [1] and over 200 nM under setting [2].
`COc1ccc2c(c1C#CCO[C@@H]1CCN(C[C@H]3CC[C@H](n4cc(NC(=O)c5cnn6ccc(N7C[C@H]8C[C@@H]7CO8)nc56)c(C(F)F)n4)CC3)C[C@@H]1F)n(C)c(=O)n2C1CCC(=O)NC1=O` (stereo partly shown) [I-1]: the 50% degradation concentration (DC50) reads like this: under setting [1], 10 to 100 nM; under setting [2], over 200 nM.
On to `COc1ccc2c(c1C#CCOC1CCN(C[C@H]3CC[C@H](n4cc(NC(=O)c5cnn6ccc(N7C[C@H]8C[C@@H]7CO8)nc56)c(C(F)F)n4)CC3)CC1)n(C)c(=O)n2C1CCC(=O)NC1=O` (stereo partly shown) [I-2], for which the DC50 was under 10 nM under setting [1] and over 200 nM under setting [2].
On to `Cn1c(=O)n(C2CCC(=O)NC2=O)c2cccc([C@]34C[C@](COC5CCN(C[C@H]6CC[C@H](n7cc(NC(=O)c8cnn9ccc(N%10C[C@H]%11C[C@@H]%10CO%11)nc89)c(C(F)F)n7)CC6)CC5)(C3)C4)c21` (stereo partly shown) [I-3], for which the half-maximal degradation concentration (DC50) is, setting by setting: under setting [1], under 10 nM; under setting [2], over 200 nM.
Regarding `O=C1CCC(n2c(=O)n(C3CC3)c3c(C#CCN4CCN(C[C@H]5CC[C@H](n6cc(NC(=O)c7cnn8ccc(N9C[C@H]%10C[C@@H]9CO%10)nc78)c(C(F)F)n6)CC5)CC4)cccc32)C(=O)N1` (stereo partly shown) [I-4], the DC50 under setting [1] is under 10 nM and the DC50 under setting [2] was over 200 nM.
With `Cn1c(=O)n(C2CCC(=O)NC2=O)c2cccc(C#CCN3CCCN(C[C@H]4CC[C@H](n5cc(NC(=O)c6cnn7ccc(N8C[C@H]9C[C@@H]8CO9)nc67)c(C(F)F)n5)CC4)CC3)c21` (stereo partly shown) [I-5], the DC50 runs as follows: under setting [1], under 10 nM; under setting [2], over 200 nM.
The matching figures for `O=C1CCN(c2cncc3c2cccc3[C@H]2C[C@@H](CN3CCN(C[C@H]4CC[C@H](n5cc(NC(=O)c6cnn7ccc(N8C[C@H]9C[C@@H]8CO9)nc67)c(C(F)F)n5)CC4)CC3)C2)C(=O)N1` [I-6]: under 10 nM and over 200 nM.
Regarding `Cn1c(=O)n(C2CCC(=O)NC2=O)c2cccc([C@]34C[C@](CN5CCN(C[C@H]6CC[C@H](n7cc(NC(=O)c8cnn9ccc(N%10C[C@H]%11C[C@@H]%10CO%11)nc89)c(C(F)F)n7)CC6)CC5)(C3)C4)c21` (stereo partly shown) [I-8], the 50% degradation concentration (DC50) is, setting by setting: under setting [1], under 10 nM; under setting [2], over 200 nM.
For the molecule `C[C@H]1CN(C[C@H]2CC[C@H](n3cc(NC(=O)c4cnn5ccc(N6C[C@H]7C[C@@H]6CO7)nc45)c(C(F)F)n3)CC2)CCN1CC#Cc1cccc2c1n(C)c(=O)n2C1CCC(=O)NC1=O` (stereo partly shown) [I-9], the DC50 by setting is: under setting [1], 10 to 100 nM; under setting [2], over 200 nM.
Turning to `O=C1CCN(c2cncc3c(C#CCOC4CCN(C[C@H]5CC[C@H](n6cc(NC(=O)c7cnn8ccc(N9C[C@H]%10C[C@@H]9CO%10)nc78)c(C(F)F)n6)CC5)CC4)cccc23)C(=O)N1` [I-10], the DC50 was under 10 nM under setting [1] and over 200 nM under setting [2].
The matching figures for `O=C1CCN(c2cncc3cc(C#CCOC4CCN(C[C@H]5CC[C@H](n6cc(NC(=O)c7cnn8ccc(N9C[C@H]%10C[C@@H]9CO%10)nc78)c(C(F)F)n6)CC5)CC4)ccc23)C(=O)N1` [I-11]: over 200 nM and over 200 nM.
The matching figures for `Cn1c(=O)n(C2CCC(=O)NC2=O)c2cccc(C#CCOC3C[C@H]4CC[C@@H](C3)N4C[C@H]3CC[C@H](n4cc(NC(=O)c5cnn6ccc(N7C[C@H]8C[C@@H]7CO8)nc56)c(C(F)F)n4)CC3)c21` (stereo partly shown) [I-12]: over 200 nM and over 200 nM.
For the molecule `CN(C[C@H]1CC[C@H](n2cc(NC(=O)c3cnn4cccnc34)c(C(F)F)n2)CC1)C1CCN(c2cccc3c(N4CCC(=O)NC4=O)cncc23)CC1` [I-13], the DC50 was over 200 nM under setting [1] and over 200 nM under setting [2].
